Data from patent publication US8575144B2, “Beta-lactamase inhibitory compounds” (Southern Methodist University, priority 2008, dated 2013).

Experiments:
Resistant P. aeruginosa = assay: Synergy of inhibitors with imipenem against resistant P. aeruginosa; format: cell-based
Description: (§1) Tables 2 and 3 show the effectiveness of inhibitory compounds of the invention in killing resistant bacterial strains with imipenem, a β-lactam antibiotic.

Resistant A. baumannii = assay: Synergy of inhibitors with imipenem against resistant A. baumannii; format: cell-based
Description: as §1

TEM-1 β-lactamase = TEM-1 β-lactamase (Escherichia coli, UniProt P62593); assay: Inhibition of representative β-lactamases: TEM-1; format: biochemical; conditions: read-out: IC50 TEM-1 E. Coli
TEM-1 β-lactamase, sequence (P62593 24-286 limits assumed): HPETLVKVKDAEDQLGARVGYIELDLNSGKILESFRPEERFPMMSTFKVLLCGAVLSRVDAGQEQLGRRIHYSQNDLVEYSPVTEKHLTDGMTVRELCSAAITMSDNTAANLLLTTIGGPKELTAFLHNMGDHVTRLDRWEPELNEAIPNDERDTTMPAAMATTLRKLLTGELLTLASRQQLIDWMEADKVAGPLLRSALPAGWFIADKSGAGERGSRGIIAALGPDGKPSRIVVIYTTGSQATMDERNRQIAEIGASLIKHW

AmpC β-lactamase [1] = biological target: T1, AmpC β-lactamase (Pseudomonas aeruginosa, UniProt P24735); assay: Inhibition of representative β-lactamases: AmpC P. aeruginosa; format: biochemical
T1 sequence (P24735 27-397): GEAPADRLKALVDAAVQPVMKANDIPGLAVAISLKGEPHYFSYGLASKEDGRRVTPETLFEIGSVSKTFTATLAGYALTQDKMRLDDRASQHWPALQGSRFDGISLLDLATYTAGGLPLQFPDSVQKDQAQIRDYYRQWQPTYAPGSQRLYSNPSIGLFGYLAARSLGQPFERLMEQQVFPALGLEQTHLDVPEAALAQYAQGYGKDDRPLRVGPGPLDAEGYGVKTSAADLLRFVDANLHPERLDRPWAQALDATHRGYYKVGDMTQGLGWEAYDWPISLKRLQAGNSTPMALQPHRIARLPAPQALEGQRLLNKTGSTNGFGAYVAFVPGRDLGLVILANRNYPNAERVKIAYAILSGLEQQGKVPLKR

AmpC β-lactamase [2] = conditions: read-out: IC50 AmpC A. baumannii
Description: Methods for testing the β-lactamase inhibitory bioactivity of compounds are well known in the art. For example, see T. Viswanantha, et al. (2008), “Assays for β-lactamase Activity and Inhibition,”, Methods in Molecular Medicine, 142: New Antibiotic Targets, Chapter 19, pp. 239-260, and references cited therein.

OXA-40 β-lactamase = OXA-40 β-lactamase (Acinetobacter baumannii, UniProt Q8RLA6); format: biochemical
OXA-40 β-lactamase, sequence (Q8RLA6 22-275): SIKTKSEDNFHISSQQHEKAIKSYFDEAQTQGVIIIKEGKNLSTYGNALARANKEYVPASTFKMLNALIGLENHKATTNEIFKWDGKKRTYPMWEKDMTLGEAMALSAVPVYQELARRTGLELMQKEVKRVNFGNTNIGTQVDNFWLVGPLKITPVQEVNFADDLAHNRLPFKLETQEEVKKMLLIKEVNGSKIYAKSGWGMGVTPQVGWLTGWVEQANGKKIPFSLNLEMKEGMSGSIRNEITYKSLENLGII

AmpC β-lactamase [3] = biological target: T1, AmpC β-lactamase; assay: Inhibition of representative β-lactamases: AmpC P. aeruginosa in serum; format: biochemical

| SMILES | MIC (Resistant P. aeruginosa; Pseudomonas aeruginosa, imipenem alone, no inhibitor) | MIC (Resistant A. baumannii; Acinetobacter baumannii, imipenem alone, no inhibitor) | IC50 (TEM-1 β-lactamase) | IC50 (AmpC β-lactamase [1]) | IC50 (AmpC β-lactamase [2]) | IC50 (OXA-40 β-lactamase) | IC50 (AmpC β-lactamase [3]) | Inhibitor concentration with imipenem at 0.0313 MIC (Resistant P. aeruginosa; imipenem 0.625 mg/L (0.0313 MIC)) | Inhibitor concentration with imipenem at 0.0625 MIC (Resistant P. aeruginosa; imipenem 1.25 mg/L (0.0625 MIC)) | Inhibitor concentration with imipenem at 0.125 MIC (Resistant P. aeruginosa; imipenem 2.5 mg/L (0.125 MIC)) | Inhibitor concentration with imipenem at 0.25 MIC (Resistant P. aeruginosa; imipenem 5 mg/L (0.25 MIC)) | Inhibitor concentration with imipenem at 0.5 MIC (Resistant P. aeruginosa; imipenem 10 mg/L (0.5 MIC)) | Inhibitor concentration with imipenem at 0.0313 MIC (Resistant A. baumannii; imipenem 8 mg/L (0.0313 MIC)) | Inhibitor concentration with imipenem at 0.0625 MIC (Resistant A. baumannii; imipenem 16 mg/L (0.0625 MIC)) | Inhibitor concentration with imipenem at 0.125 MIC (Resistant A. baumannii; imipenem 32 mg/L (0.125 MIC)) | Inhibitor concentration with imipenem at 0.25 MIC (Resistant A. baumannii; imipenem 64 mg/L (0.25 MIC)) | Inhibitor concentration with imipenem at 0.5 MIC (Resistant A. baumannii; imipenem 128 mg/L (0.5 MIC)) |
| --- | --- | --- | --- | --- | --- | --- | --- | --- | --- | --- | --- | --- | --- | --- | --- | --- | --- |
| C[C@@H](O)[C@H]1C(=O)N2C(C(=O)O)=C(SCCN=CN)C[C@H]12 [Imipenem, imipenem, reference compound] | 20 µg/mL | 256 µg/mL |  |  |  |  |  |  |  |  |  |  |  |  |  |  |  |
| C[C@]1(COC(=O)Cc2ccc(O)c(O)c2)[C@H](C(=O)O)N2C(=O)/C(=C/c3ccccn3)[C@H]2S1(=O)=O [JDB/LN-1-255] |  |  | 0.03 nM | 6 nM | 4 nM | 11 nM | 82 nM | >100 µg/mL | 100 µg/mL | 50 µg/mL | 25 µg/mL | 6.25 µg/mL | >100 µg/mL | 100 µg/mL | 50 µg/mL | 25 µg/mL | 6.25 µg/mL |
